# Test results as given in US9610281B2 (priority 2012, dated 2017).
# Tests used:
# [1] = tested on: CD-1 mice; assay: Thermal radiation tail-flick experiment I in mice (analgesic effect); assay type: in vivo; conditions: for Tail-flick threshold: injected into abdominal cavity, 30 min after dosing, cut-off 22 sec
# Protocol: Thermal Radiation Tail-flick Experiment I in Mice (Tail-flick assay): to Evaluate the Analgesic Effect In Vivo of the Compounds of the Present Invention.
# (§1) Select CD-1 mice (with the original weight being 30-40 g) and divide them into 6 groups (solvent group, morphine group, 1-THP group and DHCB groups with different doses: 5, 10, and 40 mg/kg), each including 9-11 mice. Place mice tails on the thermal radiation tail-flick apparatus and direct the light beam at ⅓ of the mice tails. First determine the basic pain thresholds of each group of mice, then inject the test samples into the abdominal cavities of the mice respectively, and after 30 min, re-determine the mice's pain thresholds. The irradiation time was no more than 22 sec. See Table 2 for the determination results.
# [2] = biological target: T1, dopamine D2 receptor (Homo sapiens, UniProt P14416); assay: FLIPR Ca2+ assay, antagonist of dopamine D2 receptor in transiently transfected HEK293T cells; assay type: cell-based; conditions: for antagonist effect on dopamine D2 receptor: intracellular Ca2+, vs DMSO blank
# T1 construct: expressed in transfected cells; host or cells: HEK293T (transiently transfected)
# Protocol: (§2) Experimental scheme: the cells used to express μ opioid receptors in this research are stably transfected human embryonic kidney 293T cells (HEK293T); the dopamine receptor applied is transiently transfected HEK293T. In this scheme, part of the berberine derivatives obtained in the present invention were added to the cells that have expressed with corresponding receptors, and FLIPR (Fluorometric Imaging Plate Reader; Molecular Devices Corp) was applied to screen and identify their functions. Specifically: inoculate cells to a 96-well cell culture plate coated with poly-D-lysme based on 80,000 per well, after 24 hours, remove the medium, add 100 μl fluorescent dye solution (2 μM Fluo-4 AM dissolves first in pluronic acid and then in the buffer composed of haploid Hank's buffer and 20 mM HEPES, with pH 7.4) to each well and keep it at 37° C. for 1 hour, then wash the cells with the buffer three times. Dissolve the compounds to be tested with DMSO and put them in a 96-well plate, apply FLIPR to automatically add samples to the cell culture plate and incubate for 3 min (for the tests of agonist of μ-opioid receptor) or 10 min (for the tests of antagonist of dopamine receptor). Then perform fluorescence detection under the wavelength of 520 nm and 488 nm, thus monitoring the concentration of Ca^2+ in the cells.
# (§3) The experimental scheme is the same as that in example 1, except that when adding, dilute the compounds to be tested with buffer to different concentrations, so as to detect responses under different doses. This method has been used to test DHCB effect on μ-opioid receptors and 5 dopamine receptors, with the results as shown in FIG. 3 and Table 1. […] In addition, μ-opioid receptor's weak synergism can further enhance the analgesic effect of DHCB.
# [3] = biological target: T2, Dopamine D4 (Homo sapiens, UniProt P21917); assay: FLIPR Ca2+ assay, antagonist of dopamine D4 receptor in transiently transfected HEK293T cells; assay type: cell-based
# T2 construct: expressed in transfected cells; host or cells: HEK293T (transiently transfected)
# T2 sequence (P21917 1-419): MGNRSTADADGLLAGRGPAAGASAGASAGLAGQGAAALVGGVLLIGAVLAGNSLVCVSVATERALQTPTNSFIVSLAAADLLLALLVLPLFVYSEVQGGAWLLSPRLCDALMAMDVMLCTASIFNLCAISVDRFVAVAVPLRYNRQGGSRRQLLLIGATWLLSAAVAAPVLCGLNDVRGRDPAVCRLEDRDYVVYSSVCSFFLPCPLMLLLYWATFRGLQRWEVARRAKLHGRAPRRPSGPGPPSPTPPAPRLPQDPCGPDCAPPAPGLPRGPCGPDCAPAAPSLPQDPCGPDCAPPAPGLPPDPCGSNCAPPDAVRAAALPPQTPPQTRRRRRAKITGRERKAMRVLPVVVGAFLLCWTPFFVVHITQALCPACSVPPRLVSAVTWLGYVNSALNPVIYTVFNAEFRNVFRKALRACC
# Protocol: as §2, with “cells. […]” for “cells.”
# [4] = tested on: CD-1 mice; assay: Formalin pain experiment in mice; assay type: in vivo; conditions: 5% formalin 15 min after drug
# Protocol: Activity Example 5: to Evaluate the Analgesic Effect In Vivo of the Compounds of the Present Invention Through Formalin Pain Experiment in Mice.
# Select CD-1 mice (with the original weight being 30-40 g) and divide them into 4 groups (solvent group, morphine group, and DHCB groups with different doses: 5 and 10 mg/kg), each including 9-11 mice. Place hind paws of the mice that are marked with formalin injection into the cages for 15-30 min. Inject drugs of corresponding doses into each mouse, and after 15 min, infuse 5% formalin solution subcutaneously into the underside of marked paw feet. The mice soon began to lick or bite their injected feet. Keep observation for 50 min, and record mice feet-licking time within phase I (0-5 min) and phase II (10-50 min).
# [5] = biological target: T3, Dopamine D3 (Homo sapiens, UniProt P35462); assay: FLIPR Ca2+ assay, antagonist of dopamine D3 receptor in transiently transfected HEK293T cells; assay type: cell-based
# T3 construct: expressed in transfected cells; host or cells: HEK293T (transiently transfected)
# Protocol: as §2, with “cells. […]” for “cells.”
# [6] = biological target: T4, Dopamine D5 (Homo sapiens, UniProt P21918); assay: FLIPR Ca2+ assay, antagonist of dopamine D5 receptor in transiently transfected HEK293T cells; assay type: cell-based
# T4 construct: expressed in transfected cells; host or cells: HEK293T (transiently transfected)
# Protocol: as §2, with “cells. […]” for “cells.”
# [7] = tested on: CD-1 mice; assay: Thermal radiation tail-flick experiment II in mice (duration time of analgesic effect); assay type: in vivo; conditions: pain thresholds within 6 hours; DHCB 20 and 40 mg/kg
# Protocol: Thermal Radiation Tail-flick Experiment II in Mice (Tail-flick Assay): to Evaluate the Duration Time of the Analgesic Effect In Vivo of the Compounds of the Present Invention.
# as §1, with “group,” for “group, 1-THP group”, “doses:” for “doses: 5,”, “10, 20” for “10,”, “determine” for “after 30 min, re-determine”, “thresholds within 6 hours according to time points.” for “thresholds.”, “sec.” for “sec. See Table 2 for the determination results.”
# [8] = tested on: mice; assay: Drug resistance experiment (mice tail-flick under thermal radiation, 7 days); assay type: in vivo; conditions: successive 7 days, DHCB 10 mg/kg into abdominal cavity, thresholds every other day
# Protocol: Drug resistance is a defect existing in many commonly used analgesics, which constitutes great limitations on their use. This experiment studies the drug resistance of DHCB through mice tail-flick under thermal radiation. During the experiment, DHCB (10 mg/kg) had been injected into the abdominal cavity of the mice for successive 7 days and the mice's pain thresholds had been detected every other day.
# [9] = biological target: T5, Dopamine D1 (Homo sapiens, UniProt P21728); assay: FLIPR Ca2+ assay, antagonist of dopamine D1 receptor in transiently transfected HEK293T cells; assay type: cell-based
# T5 construct: expressed in transfected cells; host or cells: HEK293T (transiently transfected)
# Protocol: as §2, with “cells. […]” for “cells.”
# [10] = biological target: T6, μ opioid receptor (Homo sapiens, UniProt P35372); assay: FLIPR Ca2+ assay, agonist of μ opioid receptor in stably transfected HEK293T cells; assay type: cell-based; conditions: for agonist effect on μ opioid receptor: intracellular Ca2+, vs DMSO blank
# T6 construct: expressed in transfected cells; host or cells: HEK293T (stably transfected)
# Protocol: as §2, §3
# T6 sequence (P35372 whole entry, species assumed): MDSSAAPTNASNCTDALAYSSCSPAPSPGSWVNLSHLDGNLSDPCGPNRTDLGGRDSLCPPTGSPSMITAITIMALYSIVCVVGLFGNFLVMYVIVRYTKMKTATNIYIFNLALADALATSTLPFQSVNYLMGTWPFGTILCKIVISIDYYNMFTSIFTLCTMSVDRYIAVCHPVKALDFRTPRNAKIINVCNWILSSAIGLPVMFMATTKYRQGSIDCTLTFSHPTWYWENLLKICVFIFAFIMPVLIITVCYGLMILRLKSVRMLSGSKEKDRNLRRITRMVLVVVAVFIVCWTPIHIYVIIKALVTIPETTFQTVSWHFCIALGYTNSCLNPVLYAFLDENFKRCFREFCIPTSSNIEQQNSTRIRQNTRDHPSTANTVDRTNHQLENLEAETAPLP
# T1 sequence (P14416 whole entry, species assumed): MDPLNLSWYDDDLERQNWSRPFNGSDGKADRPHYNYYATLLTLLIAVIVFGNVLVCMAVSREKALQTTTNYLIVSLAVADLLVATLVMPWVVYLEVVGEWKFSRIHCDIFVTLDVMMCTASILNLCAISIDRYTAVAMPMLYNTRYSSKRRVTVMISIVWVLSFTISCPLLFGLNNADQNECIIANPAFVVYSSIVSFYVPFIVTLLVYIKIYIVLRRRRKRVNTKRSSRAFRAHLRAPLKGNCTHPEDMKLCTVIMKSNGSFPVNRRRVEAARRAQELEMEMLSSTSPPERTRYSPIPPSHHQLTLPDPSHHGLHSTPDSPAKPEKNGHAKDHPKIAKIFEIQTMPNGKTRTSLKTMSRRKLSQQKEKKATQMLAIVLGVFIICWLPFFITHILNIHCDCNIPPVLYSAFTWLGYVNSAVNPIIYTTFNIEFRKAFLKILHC
# T5 sequence (P21728 whole entry): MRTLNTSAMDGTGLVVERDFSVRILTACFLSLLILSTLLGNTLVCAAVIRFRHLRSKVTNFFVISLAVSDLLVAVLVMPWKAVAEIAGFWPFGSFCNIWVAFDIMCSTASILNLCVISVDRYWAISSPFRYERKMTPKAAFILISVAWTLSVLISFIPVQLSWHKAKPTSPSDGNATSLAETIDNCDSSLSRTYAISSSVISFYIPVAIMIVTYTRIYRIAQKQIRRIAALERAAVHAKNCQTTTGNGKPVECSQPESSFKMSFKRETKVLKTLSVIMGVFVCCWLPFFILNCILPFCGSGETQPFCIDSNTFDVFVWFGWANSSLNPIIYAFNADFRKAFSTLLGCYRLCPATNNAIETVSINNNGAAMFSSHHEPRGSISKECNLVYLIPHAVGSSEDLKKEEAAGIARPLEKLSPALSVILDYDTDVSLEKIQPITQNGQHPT
# T3 sequence (P35462 whole entry): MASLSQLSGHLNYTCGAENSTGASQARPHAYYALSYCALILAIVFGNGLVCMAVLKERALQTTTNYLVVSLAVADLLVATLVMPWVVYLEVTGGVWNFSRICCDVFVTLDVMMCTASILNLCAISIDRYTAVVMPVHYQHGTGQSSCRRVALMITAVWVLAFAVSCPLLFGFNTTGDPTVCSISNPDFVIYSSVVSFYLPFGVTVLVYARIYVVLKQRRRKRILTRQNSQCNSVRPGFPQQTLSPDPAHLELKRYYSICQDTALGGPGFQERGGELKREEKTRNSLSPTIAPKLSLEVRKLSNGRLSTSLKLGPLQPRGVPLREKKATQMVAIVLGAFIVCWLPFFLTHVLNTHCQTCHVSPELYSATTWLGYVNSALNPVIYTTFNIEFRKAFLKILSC
# T4 sequence (P21918 whole entry): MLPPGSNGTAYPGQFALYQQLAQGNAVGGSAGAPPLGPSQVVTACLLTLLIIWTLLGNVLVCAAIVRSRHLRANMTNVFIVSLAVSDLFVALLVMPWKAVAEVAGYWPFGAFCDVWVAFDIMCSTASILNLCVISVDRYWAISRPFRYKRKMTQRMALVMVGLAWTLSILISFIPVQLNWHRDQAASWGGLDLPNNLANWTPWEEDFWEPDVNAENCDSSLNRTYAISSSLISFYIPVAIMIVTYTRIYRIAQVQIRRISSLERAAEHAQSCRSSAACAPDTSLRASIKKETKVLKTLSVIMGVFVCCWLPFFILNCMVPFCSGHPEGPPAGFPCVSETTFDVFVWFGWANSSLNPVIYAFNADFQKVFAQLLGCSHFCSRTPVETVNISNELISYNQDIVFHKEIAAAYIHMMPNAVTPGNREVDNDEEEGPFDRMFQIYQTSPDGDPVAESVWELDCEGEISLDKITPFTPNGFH
structure (smiles),measurement,setting,value
"COc1cc2c(cc1OC)[C@@H]1Cc3ccc(OC)c(OC)c3CN1CC2 [Compound 1-THP, L-tetrahydropalmatine, reference compound]",Tail-flick threshold,[1]; 10 mg/kg,10 s
COc1cc2c(cc1O)-c1c(C)c3ccc(OC)c(OC)c3c[n+]1CC2 [Compound 10],antagonist effect on dopamine D2 receptor,"[2]; FLIPR, HEK293T",good antagonist
"COc1cc2c(cc1O)CC[n+]1cc3c(OC)c(OC)ccc3c(C)c1-2 [Compound 12, dehydrocorybulbine]",effect on dopamine D4 receptor,[3]; dose-effect,antagonist
same,IC50,"[3]; dose-effect curve, HEK293T",8400 nM
same,"analgesic effect within phase I (0-5 min), feet-licking time",[4]; 5 mg/kg and 10 mg/kg,substantial analgesic effect
same,"analgesic effect within phase II (10-50 min), feet-licking time",[4]; 10 mg/kg,significant analgesic effect
same,effect on dopamine D3 receptor,[5]; dose-effect,antagonist
same,IC50,"[5]; dose-effect curve, HEK293T",2400 nM
same,effect on dopamine D5 receptor,[6]; dose-effect,antagonist
same,IC50,"[6]; dose-effect curve, HEK293T",730 nM
same,Tail-flick threshold,[1]; 5 mg/kg,9 s
same,Tail-flick threshold,[1]; 10 mg/kg,12 s
same,Tail-flick threshold,[1]; 40 mg/kg,17 s
same,analgesic effect in tail-flick,"[1]; doses of 5, 10, and 40 mg/kg",significant dose-dependent analgesic effect
same,analgesic effect on heat stimulation compared with morphine,[1]; high dose 40 mg/kg,close to that of small-dose morphine
same,analgesic effect in tail-flick compared with controls,[1]; low dose 10 mg/kg,superior to that of THP
same,duration of analgesic effect in tail-flick,[7],does not exhibit conspicuous attenuation until four hours have passed
same,analgesic effect on repeated dosing (drug resistance),[8],unchanged analgesic effect
same,antagonist activity on D2 compared with THP,"[2]; FLIPR screen, THP positive control",equivalent to that of THP
same,antagonist effect on dopamine D2 receptor,"[2]; FLIPR, HEK293T",good antagonist
same,antagonist effect on dopamine D2 receptor,"[2]; FLIPR, HEK293T, listed as DHCB",antagonist
same,IC50,"[2]; dose-effect curve, FLIPR, HEK293T",520 nM
same,effect on dopamine D1 receptor,[9]; dose-effect,antagonist
same,IC50,"[9]; dose-effect curve, HEK293T",2160 nM
same,EC50,[10]; dose-effect curve,100000 nM
same,agonist effect on μ opioid receptor,[10],a certain agonist
same,agonist effect on μ opioid receptor,[10]; listed as DHCB,weak agonist
COc1cc2c(cc1O)-c1c(C)c3ccc(OC)c(O)c3c[n+]1CC2 [Compound 14],antagonist effect on dopamine D2 receptor,"[2]; FLIPR, HEK293T",good antagonist
COc1cc2c(cc1O)CC[n+]1cc3c(O)c(OC)ccc3c(C)c1-2 [Compound 16],antagonist effect on dopamine D2 receptor,"[2]; FLIPR, HEK293T",good antagonist
same,agonist effect on μ opioid receptor,[10],a certain agonist
"CN1CC[C@]23c4c5ccc(O)c4O[C@H]2[C@@H](O)C=C[C@H]3[C@H]1C5 [morphine, reference compound]",Tail-flick threshold,[1]; 10 mg/kg,20 s
same,duration of analgesic effect in tail-flick,[7],weakens quickly two hours later
same,analgesic effect on repeated dosing (drug resistance),[8],began to reduce obviously from the third day
